Measurements taken from patent publication US10150793B2, “Antagonists of CB1 receptor” (INSERM (Institut National de la Santé et de la Recherche …, priority 2011, dated 2018).

Experiments:
dopaminergic neurons = test: Coupled in vivo microdialysis and electrophysiology: VTA dopaminergic neuron firing and dopamine outflow in nucleus accumbens; set-up: species or system rats
Experimental: Surgery and perfusion procedure were performed to allow concomitant electrophysiological and microdialysis monitoring. Briefly, rats were anesthetized using a 2% mixture of isoflurane/air, and a catheter was inserted into the femoral vein for intravenous drug administration. Thereafter, animals were placed in a stereotaxic frame (David Kopf Instruments, Phymep, Paris, France) equipped with a nose mask for constant delivery of the gas anesthesia (2% isoflurane during surgery, 1.5% isoflurane during electrophysiology and microdialysis experiment), and their rectal temperature was monitored and maintained at 37±1° C. by a heating pad (CMA 150, Carnégie Medecin, Phymep). […]
Single unit recording of DA neuronal firing and monitoring of DA extracellular levels were started 2 h after the beginning of probe perfusion (stabilization period). Dialysates (30 μL) were collected on ice every 15 min, and immediately analyzed to determine the baseline values of DA extracellular levels, defined by three consecutive samples in which DA content varied by less than 10% (9). […] DA neuron firing rate was recorded for 3-5 min to obtain the firing baseline, defined by a variation of less than 10% of the average frequency discharge of the DA neuron. […]
In this example the inventors further analyzed the ability of pregnenolone to inhibit the effects of CB1 activation. […]

TNF-α = test: Increase in plasma TNF-alpha induced by LPS; type: in vivo, mice; conditions: pregnenolone 6 mg/kg sc 30 min before LPS; measured 90 min after LPS
CB1 receptor [1] = target: T1, CB1 receptor (Mus musculus, UniProt P47746); test: THC-induced cannabinoid tetrad (body temperature, locomotor activity, catalepsy, analgesia); type: in vivo, mice; set-up: tissue Charles River Laboratories (France) (animals); host or cells: living mice, whole animal
CB1 receptor [2] = target: T1, CB1 receptor; test: Food intake in 24 h-food deprived mice (fasting/refeeding); type: in vivo, C57B1/6 mice; set-up: tissue Charles River Laboratories (France) (animals); host or cells: living mice, whole animal; conditions: for effect on food intake in 24 h-food deprived mice: food intake over 1 h
AMPA receptors = test: AMPAR-mediated mEPSC in nucleus accumbens principal neurons; type: cell-based, mouse; conditions: pregnenolone 100 nM treated slices

T1 sequence (P47746 whole entry): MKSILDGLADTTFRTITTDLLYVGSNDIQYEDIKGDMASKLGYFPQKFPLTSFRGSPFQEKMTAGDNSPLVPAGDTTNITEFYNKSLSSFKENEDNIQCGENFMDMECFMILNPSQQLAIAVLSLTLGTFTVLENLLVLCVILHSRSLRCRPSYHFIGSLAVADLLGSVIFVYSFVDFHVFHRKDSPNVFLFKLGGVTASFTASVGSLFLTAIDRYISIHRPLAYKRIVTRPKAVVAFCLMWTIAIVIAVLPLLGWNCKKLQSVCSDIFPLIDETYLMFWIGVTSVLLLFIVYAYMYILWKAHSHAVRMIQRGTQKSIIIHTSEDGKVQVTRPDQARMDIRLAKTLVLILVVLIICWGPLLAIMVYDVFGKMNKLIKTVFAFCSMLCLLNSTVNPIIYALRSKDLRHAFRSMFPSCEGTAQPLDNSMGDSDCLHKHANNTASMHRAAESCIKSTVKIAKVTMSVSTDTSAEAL

Compound: CC(=O)[C@H]1CC[C@H]2[C@@H]3CC=C4C[C@@H](O)CC[C@]4(C)[C@H]3CC[C@]12C [Pregnenolone, 5-Pregnen-3β-ol-20-one]
- effect on cocaine-induced increase in activity of the dopaminergic system (dopaminergic neurons; pregnenolone 2 mg/kg sc 30 min before cocaine 0.0125 to 0.8 mg/kg iv cumulative): able to antagonize the increase in activity of the dopaminergic system
- effect on THC-induced increase in dopamine release and dopaminergic neuron activity (dopaminergic neurons; sc 30 min prior to THC 0.15 to 1.2 mg/kg iv cumulative): strongly blunted the increase in dopamine release and in the activity of the dopaminergic neurons
- effect on increase in TNF-alpha induced by LPS (TNF-α): halved the increase in TNF-alpha
- effect on THC-induced cannabinoid tetrad (CB1 receptor [1]; pregnenolone 6 mg/kg before THC, absence of AMG): decreased all the behaviours of the THC-induced cannabinoid tetrad
- effect on the AMG enhancement of THC behavioural effects (CB1 receptor [1]; pregnenolone 6 mg/kg, AMG 50 mg/kg, THC 10 mg/kg): completely reversed
- effect on locomotor activity, body temperature, catalepsy and pain threshold in the absence of THC (CB1 receptor [1]; pregnenolone per se): had no effect
- first statistically significant dose for decrease of food intake (CB1 receptor [2]; food-deprived (food-restricted) mice, no THC): 6 mg/kg
- effect on food intake in 24 h-food deprived mice (CB1 receptor [2]; no THC): dose-dependently decreased food intake
- effect on food intake in 24 h-food deprived mice (CB1 receptor [2]; no THC, listed as pregnenolone): dose dependently decreased food intake
- effect on food intake over 24 hours in fasting/refeeding model (CB1 receptor [2]; pregnenolone): no significant effect was seen over 24 hours
- AMPAR-mediated mEPSC amplitude (AMPA receptors): 15.7±0.7 pA
- AMPAR-mediated mEPSC decay time (AMPA receptors): 4.62 ± 0.06 ms
